Reference: US11793748B1, “Pharmaceutical compositions of aspirin for parenteral administration” (GOOD HEALTH, LLC, priority 2019, dated 2023)

What was measured:
[1] = Stability of reconstituted aspirin solutions by HPLC; format: physicochemical
Description: Stability was determined by HPLC analysis using the following parameters:
Mobile Phase: Solution containing 15% acetonitrile and 85% water with 2 g/L of heptanesulfonate sodium. The pH of the solution was adjusted to 3.4.
Injection volume: 10 μl, the concentration of aspirin in sample and standard injections were maintained at about 0.5 mg/mL.
The stability of Trials 3-5 was tested using the HPLC method described above.

[2] = Reconstitution trials for micronized aspirin with aqueous solutions containing bases; format: physicochemical; conditions: aspirin 5.0 mg/mL; reconstitution with meglumine
Description: […] […] Shaken up and down vigorously to check reconstitution and clarity.
The reconstitution of higher doses of aspirin with aqueous solutions of bases indicate superiority using a combination of meglumine and sodium citrate over same bases used separately.
Therefore, these dilute solutions of the invention are suitable for slow infusion for a longer time. For example, the infusion can be made over 30 minutes to about 100 minutes with an infusion rate of about 3 mL/min to 0.8 mL/min. The rate of infusion of the invention can depend on the clinical conditions of patients, and can be modified as necessary. In certain cases, a bolus injection of concentrated aspirin solutions may be required. The aspirin solution (50 mg/mL) of the invention can be given as a bolus injection (e.g., 10 mL within 2-5 minutes).

[3] = Effect of lactose and mannitol combination on reconstitution time; format: physicochemical; conditions: aspirin 80 mg (120 sieve passed)
Description: A mixture of lactose and mannitol were tried to improve reconstitution time. Diluents were then prepared by dissolving base and sugars in water and followed by addition of PEG 300. The diluent was transferred to a vial containing aspirin, and the vial was shaken in a swirling motion.

[4] = Solubility testing of aspirin in commonly used co-solvents; format: physicochemical; conditions: 120 mg/3 mL; for Reconstitution time for milled API (Approx. 124 μm, BSS Sieve 120 passed): after shaking
Description: The solubility of aspirin was determined using propylene glycol and polyethylene glycol (PEG-300 and PEG-400), which are widely used in intravenous formulations.

[5] = bicin, tricin, CAPS, TAPS, HEPES and AMPSO buffers; remained as suspended particles; cited from earlier work
[6] = solubilization accompanied by aspirin degradation; cited from earlier work
[7] = Solubility and reconstitution of aspirin in semi-aqueous diluents; format: physicochemical; conditions: aspirin 80 mg (sieve 120 mesh passed), after shaking for 5 minutes
Description: Diluent solutions were prepared by mixing solvent and water. Aspirin was added and the vials were shaken in a swirling motion.

[8] = Effect of lactose on reconstitution time in solvent-water mixture; format: physicochemical; conditions: aspirin 80 mg, lactose 80 mg
Description: Diluent Preparation: Water, lactose, and base were taken in a vial and sonicated until a clear solution is formed. Solvent was then added and mixed for a minute. To these diluents, aspirin was added and shaken in a swirling motion.

[9] = Effect of bases on reconstitution time for aspirin in propylene glycol; format: physicochemical; conditions: aspirin 40 mg/mL, with shaking
Description: Solutions of propylene glycol with different bases were prepared by sonicating mixtures of propylene glycol and bases. Aspirin was added to those solutions and shaken in a circular motion.

[10] = Reconstitution time for aspirin-lactose premix; format: physicochemical; conditions: aspirin 80 mg + 160 mg lactose premix (both 120 sieve passed), water 1.5 ml
Description: […] The diluent was transferred to a vial containing aspirin triturated with lactose. The mixture was shaken in the vial in a swirling motion.

[11] = Stability of recrystallized aspirin powder; conditions: for % Assay / % S.A (salicylic acid impurity): 6 months 40° C./75% RH
[12] = Aspirin API, not reconstituted (reference line of stability tables)
[13] = Lysine 40 mg, lactose 80 mg + mannitol 80 mg, water 1.2 ml + PEG-300 1.8 ml
[14] = Meglumine 40 mg, lactose 20 mg + mannitol 60 mg, distilled water 1.2 ml + PEG 300 1.8 ml
[15] = Meglumine 40 mg, lactose 20 mg + mannitol 60 mg, distilled water 1.5 ml + PEG 300 1.5 ml
[16] = Meglumine 40 mg, lactose 20 mg + mannitol 60 mg, distilled water 1.8 ml + PEG 300 1.2 ml
[17] = Tris 40 mg, lactose 20 mg + mannitol 60 mg, distilled water 1.2 ml + PEG 300 1.8 ml
[18] = Tris 40 mg, lactose 20 mg + mannitol 60 mg, distilled water 1.5 ml + PEG 300 1.5 ml
[19] = Tris 40 mg, lactose 20 mg + mannitol 60 mg, distilled water 1.8 ml + PEG 300 1.2 ml
[20] = Tris 40 mg, lactose 80 mg + mannitol 80 mg, water 1.2 ml + PEG-300 1.8 ml
[21] = Tris 40 mg, lactose 80 mg + mannitol 80 mg, water 1.5 ml + PEG-300 1.5 ml
[22] = Tris 40 mg, lactose 80 mg + mannitol 80 mg, water 1.8 ml + PEG-300 1.2 ml
[23] = Lysine 40 mg, water 1.8 ml + PEG 300 1.2 ml
[24] = Lysine 40 mg, water 1.8 ml + PEG 400 1.2 ml
[25] = Tris 40 mg, water 1.8 ml + PEG 300 1.2 ml
[26] = Tris 40 mg, water 1.8 ml + PEG 400 1.2 ml

CC(=O)Oc1ccccc1C(=O)O [Aspirin, aspirin]
% Salicylic acid [1, 12]: 0.24%
Aspirin peak purity [1, 12]: 99.76%
period for which reconstituted aspirin was stable ([1]; higher concentration (50 mg/mL), aqueous solution containing both meglumine and sodium citrate, 2-8° C.): about 5 hours
time to clear solution on reconstitution [2]: ≤ 2 min
Observation [3, 13]: hazy
Reconstitution time [3, 13]: 2.00 min
Observation [3, 14]: hazy
Reconstitution time [3, 14]: 2.00 min
Observation [3, 15]: Clear
Reconstitution time [3, 15]: 2.20 min
Observation [3, 16]: Clear
Reconstitution time [3, 16]: 2.30 min
Observation [3, 17]: Clear
Reconstitution time [3, 17]: 2.00 min
Observation [3, 18]: Clear
Reconstitution time [3, 18]: 2.10 min
Observation [3, 19]: Clear
Reconstitution time [3, 19]: 2.30 min
Observation [3, 20]: hazy
Reconstitution time [3, 20]: 2.10 min
Observation [3, 21]: Clear
Reconstitution time [3, 21]: 2.25 min
Observation [3, 22]: Clear
Reconstitution time [3, 22]: 2.10 min
Reconstitution time for unmilled Aspirin ([4]; PEG-300): Not easily soluble,
Reconstitution time for milled API (Approx. 124 μm, BSS Sieve 120 passed) ([4]; PEG-300): Soluble in 3 minutes,
Reconstitution time for unmilled Aspirin ([4]; PEG-400): Not easily soluble,
Reconstitution time for milled API (Approx. 124 μm, BSS Sieve 120 passed) ([4]; PEG-400): Soluble in 3 minutes,
Reconstitution time for unmilled Aspirin ([4]; propylene glycol): Not easily soluble,
Reconstitution time for milled API (Approx. 124 μm, BSS Sieve 120 passed) ([4]; propylene glycol): Soluble in 3 minutes,
solubility in aqueous buffers [5]: poor
solubility in aqueous alkali hydroxide solutions and aqueous bicarbonate solutions [6]: soluble
Observation ([7]; 1.8 mL PEG 300 + 1.2 mL water): Turbid with particles
Observation ([7]; 1.8 mL PEG 400 + 1.2 mL water): Turbid with particles
Observation ([7]; 1.8 mL propylene glycol + 1.2 mL water): Turbid with particles
Observation [8, 23]: Clear
Reconstitution time [8, 23]: 3.15 min
Observation [8, 24]: Clear
Reconstitution time [8, 24]: 3.50 min
Observation [8, 25]: Clear
Reconstitution time [8, 25]: 3.20 min
Observation [8, 26]: Clear
Reconstitution time [8, 26]: 2.40 min
Reconstitution time for milled API (Approx. 124 μm, BSS Sieve 120 passed) ([9]; propylene glycol with 10 mg/mL Arginine): 3 minutes with shaking.
Reconstitution time for milled API (Approx. 124 μm, BSS Sieve 120 passed) ([9]; propylene glycol with 10 mg/mL Lysine): 1.40 minutes with shaking.
Reconstitution time for milled API (Approx. 124 μm, BSS Sieve 120 passed) ([9]; propylene glycol with 10 mg/mL Meglumine): 2 minutes with shaking.
Reconstitution time for milled API (Approx. 124 μm, BSS Sieve 120 passed) ([9]; propylene glycol with 10 mg/mL Tromethamine): 1.45 minutes with shaking.
Observation ([10]; Tris 30 mg): Clear
Reconstitution time ([10]; Tris 30 mg): 2.00 min
Observation ([10]; Tris 35 mg): Clear
Reconstitution time ([10]; Tris 35 mg): 1.25 min
Observation ([10]; Tris 40 mg): Clear
Reconstitution time ([10]; Tris 40 mg): 1.00 min
Observation ([10]; Tris 50 mg): hazy
Reconstitution time ([10]; Tris 50 mg): 1.40 min
period stable at room temperature ([11]; room temperature, inferred from accelerated stability data): at least 2 years

CC(=O)Oc1ccccc1C(=O)O [Recrystallization from Acetone]
% Assay ([11]; recrystallized powder): 97.20%
% S.A (salicylic acid impurity) ([11]; recrystallized powder): 0.505%

CC(=O)Oc1ccccc1C(=O)O [Recrystallization from Ethanol]
% Assay ([11]; recrystallized powder): 97.72%
% S.A (salicylic acid impurity) ([11]; recrystallized powder): 0.452%
stability at accelerated conditions ([11]; recrystallized powder, accelerated conditions (6 months 40° C./75% RH)): stable

CC(=O)Oc1ccccc1C(=O)O [Recrystallization from Isopropanol]
% Assay ([11]; recrystallized powder): 99.35%
